The compounds below were run on M17_3TAU(P301L) cells (assay: Neuroblastoma tauopathy model: inhibition of TAU-induced cytotoxicity (LDH) after retinoic acid differentiation). Details: Homo sapiens, 168 h, inhibition of TAU-induced toxicity, 7 days retinoic acid, LDH readout.
Format: cell-based
From the text: A TAU expression plasmid was constructed by sub-cloning the cDNA encoding for human TAU-P301L protein, wherein proline at position 301 is substituted by a leucine residue, into mammalian expression vector pcDNA3.1 resulting in the plasmid pcDNA3.1-TAUP301L. Plasmids pcDNA3.1 and pcDNA3.1-TAU P301L were transfected into human neuroblastoma cells (BE-M17; ATCC No. CRL2267™) using lipofectamine reagent and subsequently, independent clonal cell lines with the plasmids stably integrated into the genome were selected by antibiotic resistance selection (Geneticin (G418)), resulting in cell lines M17.pcDNA3 and M17_3TAUP301L. Expression of the TAUP301L gene in the M17_3TAUP301L cells was confirmed by Western blot analysis.
Differentiation of the cells with RA leads to phosphorylation and subsequent aggregation of TAU, inducing a tauopathy in these cells. Cytotoxicity of cells was measured by quantification of lactate dehydrogenase (LDH) levels. In dead cells LDH is leaked out of the cells into the medium due to a loss of plasma-membrane integrity.
Briefly, 3 days preceeding the experiment pre-cultures of M17.pcDNA3 and M17_3TAU(P301L) cells were prepared, starting from a stock culture, at a density of 50.000-100.000 cells/cm2 in detection medium (Optimem Reduced Serum without phenol red (Gibco, Cat. 31985-047) supplemented with 1% fetal calf serum (FCS), 1 mM sodium pyruvate, 1× non-essential amino acids (NEAR), 500 μg/ml G418 and 0.5× antibiotic/antimycotic (ABAM)). At the day of the experiment these precultures were diluted to ˜0, 1.106 cells/ml in detection medium without FCS and 60 μL of this suspension is dispensed per well into a 96-well microtiter plate. After 3 hours of incubation at 37° C./5% CO2 an equal volume of detection medium containing 2.5 μM RA was added and subsequently incubated for 7 days at 37° C./5% CO2. After 7 days, LDH activity was determined using the Promega Cytotox 96 Non-Radioactive cytotoxicity assay (Cat. G1780), according the manufacturer's instructions. Cytotoxicity is measured as the ratio of LDH increase in the supernatant divided by the LDH increase in the total cell suspension (sum of the LDH measured in cells and supernatant).
The M17_3TAU(P301L) cell line makes it possible to assess the ability of novel compounds to inhibit TAU-induced cytotoxicity. […] Compounds were tested for their ability to hamper TAU-induced toxicity at different concentrations, ranging from low non-effective concentrations to high potent concentrations. Afterwards, the dose-dependent inhibition curve was used to calculate their EC50 (Table III).
`FC1(F)CCN(c2nsc(N3CCN(CCc4ccc(Cl)cc4)CC3)n2)C1` [Example 3, 1-[2-(4-Chloro-phenyl)-ethyl]-4-[3-(3,3-difluoro-pyrrolidin-1-yl)-[1,2,4]thiadiazol-5-yl]-piperazine] showed an EC50 of 8.8 nM.
`COc1cccc(CCN2CCN(c3nc(C4CC4)ns3)CC2)c1` [Example 26, 1-(3-Cyclopropyl-[1,2,4]thiadiazol-5-yl)-4-[2-(3-methoxy-phenyl)-ethyl]-piperazine] showed an EC50 of 410 nM.
Compound `CCCCc1nsc(N2CCN(CCc3ccc(OC)cc3)CC2)n1` [Example 23, 1-(3-Butyl-[1,2,4]thiadiazol-5-yl)-4-[2-(4-methoxy-phenyl)-ethyl]-piperazine] has an EC50 of 0.5 nM.
Compound `COc1ccc(CCN2CCN(c3nc(C4CC4)ns3)CC2)cc1` [Example 24, 1-(3-Cyclopropyl-[1,2,4]thiadiazol-5-yl)-4-[2-(4-methoxy-phenyl)-ethyl]-piperazine] has an EC50 of 44.5 nM.
In the case of `COc1ccc(CCN2CCN(c3nc(C4CCOCC4)ns3)CC2)cc1` [Example 28, 1-[2-(4-Methoxy-phenyl)-ethyl]-4-[3-(tetrahydro-pyran-4-yl)[1,2,4]thiadiazol-5-yl]-piperazine], the EC50 is reported as 33.3 nM.
`Fc1ccc(CCN2CCN(c3nc(C4CCOCC4)ns3)CC2)cc1` [Example 27, 1-[2-(4-Fluoro-phenyl)-ethyl]-4-[3-(tetrahydro-pyran-4-yl)-[1,2,4]thiadiazol-5-yl]-piperazine] showed an EC50 of 309 nM.
Compound `Clc1ccc(CCN2CCN(c3nc(NC4CCCCC4)ns3)CC2)cc1` [Example 9, (5-{4-[2-(4-Chloro-phenyl)-ethyl]-piperazin-1-yl}-[1,2,4]thiadiazol-3-yl)-cyclohexyl-amine] has an EC50 of 9.4 nM.
`COc1ccc(CCN2CCN(c3nc(N4CCC(F)(F)CC4)ns3)CC2)cc1` [Example 1, 1-[3-(4,4-Difluoro-piperidin-1-yl)-[1,2,4]thiadiazol-5-yl]-4-[2-(4-methoxy-phenyl)-ethyl]-piperazine] gave an EC50 of 0.6 nM.
With `FC(F)(F)C1CCN(c2nsc(N3CCN(CCc4ccc(Cl)cc4)CC3)n2)CC1` [Example 5, 1-[2-(4-Chloro-phenyl)-ethyl]-4-[3-(4-trifluoromethyl-piperidin-1-yl)-[1,2,4]thiadiazol-5-yl]-piperazine] the EC50 was 47 nM.
Work on `Fc1ccc(CCN2CCN(c3nc(NC4CCC(C(F)(F)F)CC4)ns3)CC2)cc1F` (stereo not drawn) [Example 19, (5-{4-[2-(3,4-Difluoro-phenyl)-ethyl]-piperazin-1-yl}[1,2,4]thiadiazol-3-yl)-(4-trifluoromethyl-cyclohexyl)-amine] yielded an EC50 of 340 nM.
With `CCCCN(CC)c1nsc(N2CCN(CCc3ccc(F)c(F)c3)CC2)n1` [Example 20, Butyl-(5-{4-[2-(3,4-difluoro-phenyl)-ethyl]-piperazin-1-yl}-[1,2,4]thiadiazol-3-yl)-ethyl-amine] the EC50 was 709 nM.
Work on `COc1ccc(CCN2CCN(c3nc(C4CCCCC4)ns3)CC2)cc1` [Example 21, 1-(3-Cyclohexyl-[1,2,4]thiadiazol-5-yl)-4-[2-(4-methoxy-phenyl)-ethyl]-piperazine] yielded an EC50 of 2.2 nM.
Work on `Fc1ccc(CCN2CCN(c3nc(N4CCC(F)(F)CC4)ns3)CC2)cc1F` [Example 10, 1-[2-(3,4-Difluoro-phenyl)-ethyl]-4-[3-(4,4-difluoro-piperidin-1-yl)-[1,2,4]thiadiazol-5-yl]-piperazine] yielded an EC50 of 12.1 nM.
For `Clc1ccc(CCN2CCN(c3nc(N4CCCCC4)ns3)CC2)cc1` [Example 6, 1-[2-(4-Chloro-phenyl)-ethyl]-4-(3-piperidin-1-yl-[1,2,4]thiadiazol-5-yl)-piperazine], the EC50 was 64.1 nM.
In the case of `COc1cccc(CCN2CCN(c3nc(C4CCCCC4)ns3)CC2)c1` [Example 22, 1-(3-Cyclohexyl-[1,2,4]thiadiazol-5-yl)-4-[2-(3-methoxy-phenyl)-ethyl]-piperazine], the EC50 is reported as 3 nM.
`Clc1ccc(CCN2CCN(c3nc(NCC4CC4)ns3)CC2)cc1` [Example 7, (5-{4-[2-(4-Chloro-phenyl)-ethyl]-piperazin-1-yl}-[1,2,4]thiadiazol-3-yl)-cyclopropylmethyl-amine] gave an EC50 of 17.2 nM.
With `FC1CCN(c2nsc(N3CCN(CCc4ccc(Cl)cc4)CC3)n2)CC1` [Example 4, 1-[2-(4-Chloro-phenyl)-ethyl]-4-[3-(4-fluoro-piperidin-1-yl)-[1,2,4]thiadiazol-5-yl]-piperazine] the EC50 was 84.6 nM.
For `Fc1ccc(CCN2CCN(c3nc(NC4CCCCC4)ns3)CC2)cc1F` [Example 17, Cyclohexyl-(5-{4-[2-(3,4-difluoro-phenyl)-ethyl]-piperazin-1-yl}-[1,2,4]thiadiazol-3-yl)-amine], the EC50 was 3.8 nM.
Compound `Fc1ccc(CCN2CCN(c3nc(NCC4CC4)ns3)CC2)cc1F` [Example 15, Cyclopropylmethyl-(5-{4-[2-(3,4-difluoro-phenyl)-ethyl]-piperazin-1-yl}-[1,2,4]thiadiazol-3-yl)-amine] has an EC50 of 38.4 nM.
For `Fc1ccc(CCN2CCN(c3nc(NC4CCOCC4)ns3)CC2)cc1F` [Example 16, (5-{4-[2-(3,4-Difluoro-phenyl)-ethyl]-piperazin-1-yl}-[1,2,4]thiadiazol-3-yl)-(tetrahydro-pyran-4-yl)-amine], the EC50 was 34.5 nM.
With `Fc1ccc(CCN2CCN(c3nc(N4CCC(F)(F)C4)ns3)CC2)cc1F` [Example 11, 1-[2-(3,4-Difluoro-phenyl)-ethyl]-4-[3-(3,3-difluoro-pyrrolidin-1-yl)-[1,2,4]thiadiazol-5-yl]-piperazine] the EC50 was 11.4 nM.
`Fc1ccc(CCN2CCN(c3nc(N4CCC(C(F)(F)F)CC4)ns3)CC2)cc1F` [Example 13, 1-[2-(3,4-Difluoro-phenyl)-ethyl]-4-[3-(4-trifluoromethyl-piperidin-1-yl)-[1,2,4]thiadiazol-5-yl]-piperazine] gave an EC50 of 15.3 nM.
`Fc1ccc(CCN2CCN(c3nc(N4CCCCC4)ns3)CC2)cc1F` [Example 18, 1-[2-(3,4-Difluoro-phenyl)-ethyl]-4-(3-piperidin-1-yl-[1,2,4]thiadiazol-5-yl)-piperazine] was tested, and the EC50 was 46.4 nM.
Work on `Fc1ccc(CCN2CCN(c3nc(C4CCOCC4)ns3)CC2)cc1F` [Example 31, 1-[2-(3,4-Difluoro-phenyl)-ethyl]-4-[3-(tetrahydro-pyran-4-yl)-[1,2,4]thiadiazol-5-yl]-piperazine] yielded an EC50 of 308 nM.
`Clc1ccc(CCN2CCN(c3nc(NC4CCOCC4)ns3)CC2)cc1` [Example 8, (5-{4-[2-(4-Chloro-phenyl)-ethyl]-piperazin-1-yl}-[1,2,4]thiadiazol-3-yl)-(tetrahydro-pyran-4-yl)-amine] showed an EC50 of 52.2 nM.
With `COc1cc(CCN2CCN(c3nc(C4CCOCC4)ns3)CC2)ccn1` [Example 29, 1-[2-(2-Methoxy-pyridin-4-yl)-ethyl]-4-[3-(tetrahydro-pyran-4-yl)-[1,2,4]thiadiazol-5-yl]-piperazine] the EC50 was 203 nM.
`Fc1ccc(CCN2CCN(c3nc(N4CCC(F)CC4)ns3)CC2)cc1F` [Example 12, 1-[2-(3,4-Difluoro-phenyl)-ethyl]-4-[3-(4-fluoro-piperidin-1-yl)-[1,2,4]thiadiazol-5-yl]-piperazine] gave an EC50 of 33.3 nM.
Work on `CCCCc1nsc(N2CCN(CCc3cccc(OC)c3)CC2)n1` [Example 25, 1-(3-Butyl-[1,2,4]thiadiazol-5-yl)-4-[2-(3-methoxy-phenyl)-ethyl]-piperazine] yielded an EC50 of 2.2 nM.
In the case of `Fc1ccc(CCN2CCN(c3nc(N4CCCC4)ns3)CC2)cc1F` [Example 14, 1-[2-(3,4-Difluoro-phenyl)-ethyl]-4-(3-pyrrolidin-1-yl-[1,2,4]thiadiazol-5-yl)-piperazine], the EC50 is reported as 176 nM.
Work on `Cc1ccccc1CN1CCN(c2nc(C3CCOCC3)ns2)CC1` [Example 30, 1-(2-Methyl-benzyl)-4-[3-(tetrahydro-pyran-4-yl)-[1,2,4]thiadiazol-5-yl]-piperazine] yielded an EC50 of 414 nM.

From patent publication US9808456B2, “Piperazine thiazole derivatives useful in the treatment of tauopathies such as Alzheimer's disease” (REMYND NV, priority 2011, dated 2017)
